Data published in patent US12595517B2, “Method to treat and stratify a patient suffering from a cancer” (INSERM (INSTITUT NATIONAL DE LA SANTÉ ET DE LA RECHERCHE …, priority 2020, dated 2026).

Tests used:
Bim = Bim expression (in-cell ELISA, RT-qPCR) in A172 cells; format: cell-based, human
Protocol: In cell ELISA were performed using the Bim Colorimetric Cell-Based ELISA kit (Aviva Systems Biology, France) according to the manufacturer's instructions. Briefly, 5 000 cells were seeded in 96-well plate to be exposed or not to indicated exosome or miRNA. After that, cells were treated with a fixing solution (4% of paraformaldehyde solution) for 10 min at room temperature. Primary antibody was incubated overnight at 4° C. Adequate HRP-conjugated secondary antibodies were incubated for 1 hour at room temperature. Detection was performed at 450 nm.
After washes, cells in each well were incubated with crystal violet solution for 5 min at room temperature, according to the manufacturer's instructions. Absorbance was read at 595 nm, and used to normalize the “Bim signal”.
RNA extract is performed using RNeasy Mini QIAcube Kit and QIAcube (Qiagen, France). RT-qPCRs are performed using QuantiTect Reverse Transcription Kit, Rotor-Gene SYBR Green PCR Kit, QuantiTect Primer Assays and Rotor-Gene Q as real-time thermocycler (Qiagen, France). Reference gene RPLPO was used, with the 2-ΔΔCt relative quantification method.

3′UTR/Bim plasmid = test: Luciferase 3'UTR reporter assay; format: cell-based, human; conditions: A172
Protocol: Cells were seeded in 24-well plates and were transfected with the indicated firefly luciferase constructs together with an SV40-renilla control vector. Lysates were prepared at […], and luciferase activity was measured using the Dual Luciferase Reporter Assay system (Promega, France) and a luminometer (MicroLumat Plus, EG&G Berthold, France).

A549-induced tumors = test: A549-inoculated xenograft mice, tumor volume; format: in vivo
Protocol: The experimental procedures using animals were in accordance with Institutional Animal Care guidelines and the French National Committee of Ethics. In addition, all experiments were conducted according to the Regulations for Animal Experimentation at the “Plate-forme […] the “Institut de Recherche en Santé de l'Université de Nantes (IRS-15N)” and approved by the French National Committee of Ethics. Cultured A549 cells were harvested by trypsinization, washed and resuspended in saline buffer. Cell suspensions were injected subcutaneously (s.c.) into the flanks of 7-/8-week-old mice (Janvier, France). Tumor volume based on caliper measurements was calculated using the modified ellipsoidal formula (Tumor volume=1⁄2(length×width2)).

[1] = tested on: A549 (a lung cancer cell line); test: Chemotherapy-induced cell death, PARP and Caspase-3 cleavage in A549; format: cell-based, human; conditions: A549 exposed to Exo/αPD1; CIS 5 μM, ABT263 15 μM
Protocol: Colorimetric Cell Cytotoxicity Assay Kit (Abcam, France) was used to estimate the cell viability. Briefly, cells were seeded in 96-well plate. After the realization of manufacturer's instruction, absorbance was read at 570 and 605 nm using Victor™x3 spectrophotometer (Perkin-Elmer, France).
Levels of cleaved caspase-3 and cleaved PARP are considered as both biomarkers of apoptosis. The measurement of these two parameters was performed using the Human Cleaved PARP1 and Human Cleaved Caspase-3 ELISA Kits (Abcam, France) according to the manufacturer's protocol.
In view of the data described above, associating the ineffectiveness of cisplatin+αPD1 therapy with exomiR-4315-induced Bim down-expression, we then studied the effect of a “Bim/BH3 mimetic drug” such as ABT263 on the resistance to cisplatin of A549 cells exposed to Exo/αPD1. A549 lung cancer cells were then exposed to Exo/αPD1 and Exo prior to the addition of cisplatin (CIS, 5 μM) and/or ABT263 (15 μM). ABT263 abrogated the Exo/αPD1-induced resistance to CIS (FIG. 4A).

5′CCGCUUUCUGAGCUGGAC (miScript mimic, further chemistry not given here) [mimic miR-4315, Syn-hsa-miR-4315 miScript miRNA Mimic]
Bim expression (protein and mRNA levels) (Bim): down-regulated
luciferase activity associated with the 3′UTR/Bim plasmid (3′UTR/Bim plasmid): decreased

CC1(C)CCC(c2ccc(Cl)cc2)=C(CN2CCN(c3ccc(C(=O)NS(=O)(=O)c4ccc(N[C@H](CCN5CCOCC5)CSc5ccccc5)c(S(=O)(=O)C(F)(F)F)c4)cc3)CC2)C1 [ABT263, navitoclax]
deleterious effect of Exo/αPD1 on the CIS-resistance of cancer cells (A549-induced tumors; A549 xenograft mice): suppressed
Exo/αPD1-induced resistance to CIS [1]: abrogated

N.N.[Cl][Pt][Cl] [CIS, cisplatin]
volume of A549-induced tumors (A549-induced tumors; xenograft mice): decreased
